Entries after “also recorded” stand apart in the source; their conditions may differ. Square brackets hold non-standard residues; d marks the D form. Ends that are not written are not given here. Peptide text beside a SMILES is read from it. Dmt = Cc1cc(O)cc(C)c1C[C@H](N)C(=O)O; β3hF = N[C@H](CC(=O)O)Cc1ccccc1; Phe∗ = not defined here; Trp∗ = not defined here

For one data set, the system named is Male CD1 mice. Kind of data set: Radiant heat tail-flick test after s.c. administration, opioids in solution or co-formulated with hydrogelator. It is filed as in vivo, mouse. Conditions: for Time after administration at which no effect was detected / Time of peak antinociceptive action: s.c. bolus in solution (morphine 5 mg/kg; 14-MM 2.25 μg). The procedure:
Male CD1 mice (6-8 weeks old, body weight average 30 g) were obtained from Charles River (Sulzfeld, Germany). Mice were group-housed in a temperature controlled room with a 12 h light/dark cycle and with free access to food and water. All animal studies were conducted in accordance with ethical guidelines and animal welfare standards according to Austrian regulations for animal research, and were approved by the Committee of Animal Care of the Austrian Federal Ministry of Science and Research.
The radiant heat tail-flick test was used to assess antinociceptive effects of tested drugs after s.c. administration in mice using an UB 37360 Ugo Basile analgesiometer (Ugo Basile s.r.l., Varese, Italy) as described previously (A. Novoa et al., 2012). The reaction time required by the mouse to remove its tail due to the radiant heat was measured and defined as the tail-flick latency. A cut-off time of 10 s was also used in order to minimize tissue damage. The antinociceptive response was expressed as percent of Maximum Possible Effect (% MPE)=[(TL-BL)/(cut-off time-BL)]×100. Data were analyzed with ANOVA using Tukey's multiple comparison test, and graphically processed with the GraphPad Prism Software (GraphPad Software Inc., San Diego, CA).
(§1) Performed as described in Example 5.
as §1
The antinociceptive effect of co-formulations of a peptide hydrogelator as described herein with peptide-based analgesics was investigated in a model of thermal nociception using the tail-flick test in mice. […] The Tail-flick test was performed as described in Example 5.

Data set [1] can be described thus: Stability and degradability of biogels in human plasma (Example 8). The format is in vitro ADME. Conditions: 37° C.; for half-life at 14 μM: human, plasma, in solution. As to the method:
After centrifugation at 14 000 rpm for 15 minutes, 100 μL supernatant was diluted with 100 μL milliQ water in the injection vial. Injection samples were vortexed for 5 seconds and were analyzed by HPLC. […] Calculations were performed using Microsoft® Office Professional 2010 Excel.

The nature of another data set: human plasma. Conditions: 37° C.; for cleaved bond / fragment found: up to 60 min.
The nature of data set [2]: Peptide gelation (tilted tube / inverted vial test, minimum gelation concentration). It is filed as physicochemical. Conditions: for Minimum gelation concentration (w/v % in PBS): '/' = no gel; for Gelation behaviour: 2% w/v, PBS 10 mM, pH 7.4. The procedure:
The peptide gelation occurred by dissolving the TFA salt of the hexapeptide (2 mg) in 100 μL of PBS solution (pH 7.4) or physiological saline solution (0.9% NaCl).
Both peptides 2 and 4 (Table 1) gave a transparent gel in the same conditions (PBS 10 mM at pH 7.4 with a minimum gelation concentration of 24 mM; 2% w/v). To evaluate the mechanical properties of these hydrogels in a more quantitative manner, rheological experiments were performed. The viscoelastic properties of the peptide hydrogels were measured by dynamic rheometry at 37° C. This technique allowed to measure the storage modulus G′ (corresponding to the material's stiffness or rigidity), loss modulus G″ (corresponding to the viscous properties of the material) and loss factor tan (o) (ratio of G″ over G′). According to the Winter-Chambon criterion, a material reaches gelation in rheological terms if the phase angle o gets frequency-independent (F. Chambon et al., 1987 and H. Winter et al., 1987).
The peptide gelation occurred by dissolving the TFA salt of the peptide in 100 μL of PBS solution or physiological saline solution (0.9% NaCl) (pH 7.4).
The peptide gelation occurs by dissolving the TFA salt of the hydrogelator (1 or 2 mg) in 100 μL of aqueous media, PBS solution (pH 7.4) or physiological saline solution (0.9% NaCl). After successive vortexing and sonication, the gel is left to rest overnight at room temperature.
The hydrogelation was realized under physiologically relevant conditions, namely via the addition of phosphate-buffered saline (PBS) or sterile physiological saline solution (0.9% NaCl). The needed amount of hydrogelator was weighed in an Eppendorf® and solubilized by the addition of the above solutions. After vortex and sonication steps, the resulting solution was left at room temperature until gelation occurred. The gelation was qualitatively verified by the inverted vial test (if no gravitational flow was visible the gelation was considered successful). It can be noticed that all peptide hydrogelators depicted formed gels in PBS and saline solution at a concentration of 1 to 2% w/v.

Turning to `CO[C@@]12CCC(=O)[C@]3(C)Oc4c(O)ccc5c4[C@@]31CCN(C)[C@@H]2C5` [14-MM, 14-methoxymethopon], in the data set on Male CD1 mice (s.c. bolus), the “Dose required to produce 80% MPE, times lower than morphine” value is given as 66 times. In the data set on Male CD1 mice (s.c. bolus 2.25 μg, 30 min), the “Antinociceptive effect at peak of action (% MPE)” value is 80 % of MPE. In the data set with Male CD1 mice, the “Time after administration at which no effect was detected” value is on record as 4 h and the “Time of peak antinociceptive action” value was 30 min.

As usually defined, the half-life is how long it takes for the measured level to halve. High values mean slow decline, low ones rapid decline. For the molecule `Cc1cc(O)cc(C)c1C[C@H](N)C(=O)N[C@H](CCCCN)C(=O)N[C@@H](Cc1ccccc1)C(=O)N[C@@H](Cc1ccccc1)C(=O)N[C@@H](CCC(N)=O)C(=O)N[C@@H](Cc1ccccc1)C(=O)N[C@@H](CCC(N)=O)C(=O)N[C@@H](Cc1ccccc1)C(=O)N[C@@H](CCCCN)C(N)=O` [CM-136, Dmt-OLy:s-Phe-Phe-Gln-Phe*-Gln-Phe*-Lys-NH2] (H-[Dmt][dK]FFQFQFK-NH2), the half-life at 14 μM in data set [1] is roughly 0.183 h.

As to `Cc1cc(O)cc(C)c1C[C@H](N)C(=O)N[C@H](CCCNC(=N)N)C(=O)N[C@@H](Cc1ccccc1)C(=O)N[C@@H](Cc1ccccc1)C(=O)N[C@@H](CCC(N)=O)C(=O)N[C@H](CC(=O)N[C@@H](Cc1ccccc1)C(=O)N[C@@H](CCC(N)=O)C(=O)N[C@@H](Cc1ccccc1)C(=O)N[C@@H](CCCCN)C(N)=O)Cc1ccccc1` [CM-137, Dmt-OArg-Phe-Phe-Gln-J3;s-homo-Phe-Phe-Gln-Phe*-Lys-NH2] (H-[Dmt][dR]FFQ[β3hF]FQFK-NH2; N-terminus assumed), the Extent of degradation entry in data set [1] (human plasma) is “the degradation stops after the cleavage of the first Gin”. The molecule also registered a half-life at 14 μM in data set [1] of roughly 2.05 h.

For the molecule `CN1CC[C@]23c4c5ccc(O)c4O[C@H]2[C@@H](O)C=C[C@H]3[C@H]1C5` [morphine], in the data set with Male CD1 mice, the “Time after administration at which no effect was detected” value is reported as 3 h and the “Time of peak antinociceptive action” value is 30 min. In the data set with Male CD1 mice (s.c. bolus in solution, 5 mg/kg (0.15 mg per mouse)), the “Antinociceptive effect (% MPE)” value is recorded as 80 % MPE.

On to “Dmt-DArg-Phe-Phe-Gln-Phe*-Gln-Phe-Lys-NH2”, for which, in “human plasma”, the cleaved bond result was “Gln-Phe, first_seen, 2.5 min; also recorded: Gln-Phe, 7.5 min” and the fragment found entry is on record as “Dmt-DArg-Phe-OH, 60 min”.

With “Dmt-DLys-Phe-Phe-Glu-Phe*-Gln-Phe-Lys-NH2”, the cleaved bond entry in “human plasma” was “Gln-Phe, first_seen, 2.5 min; also recorded: Glu-Phe, 7.5 min”.

As to “Dmt-OLy:s-Phe-Phe-Gln-Phe*-Gln-Phe*-Lys-NH2”, the fragment found entry in the data set “human plasma” is given as “heptapeptide, first_seen; also recorded: pentapeptide; also recorded: tripeptide”.

On to H-DLys-DPhe-DGln-DPhe*-DGlu-DPhe-NH2, for which the not cleaved result in “human plasma” (up to 1500 min) was “remains intact after 25 h of incubation”.

As for H-DPhe-DGlu-DPhe*-DGln-DPhe-DLys-NH2, the not cleaved result in “human plasma” (up to 5700 min) is given as “remained intact after 4 days of incubation”.

Turning to “H-DPhe-DGlu-DPhe*-DGln-DPhe-DLys-NH2 (H-[dF][dE]F[dQ][dF][dK]-NH2; not fully specified (residue 3)) [compound 17]”, in data set [2], the “Minimum gelation concentration (w/v % in PBS)” value was found to be 2 w/v %.

For the molecule “H-DPhe-DGlu-DPhe*-DGln-DPhe-DLys-OH (H-[dF][dE]F[dQ][dF][dK]-OH; not fully specified (residue 3)) [compound 25]”, the “Minimum gelation concentration (w/v % in PBS)” value in data set [2] is reported as 1 w/v %.

As to “H-IEIQIK-NH2 [compound 5, H-Ile-Glu-Ile-Gln-Ile-Lys-NH2]”, in data set [2], the Gelation behaviour result is “formed gels” and the “Minimum gelation concentration (w/v % in PBS)” value came out at 2 w/v %.

Take “H-Leu-Glu-Leu-Gln-Leu-Lys-NH2 (H-LELQLK-NH2) [peptide 6]”: in data set [2], the Gelation behaviour entry is “remained in solution”.

As to “H-Lys-Phe-Gln-Phe*-Glu-Phe-OH (H-KFQ[Phe∗]EF-OH; not fully specified; reading uncertain) [compound 26]”, the “Minimum gelation concentration (w/v % in PBS)” value in data set [2] was found to be 2 w/v %.

Take “H-Phe-Glu-Phe*-Asn-Phe-Lys-NH2 (H-FE[Phe∗]NFK-NH2; not fully specified; reading uncertain) [compound 11]”: the “Minimum gelation concentration (w/v % in PBS)” value in data set [2] came out at 1 w/v %.

Turning to “H-Phe-Glu-Phe*-Asn-Phe-Lys-OH (H-FE[Phe∗]NFK-OH; not fully specified; reading uncertain) [compound 10]”, the “Minimum gelation concentration (w/v % in PBS)” value in data set [2] was found to be 1 w/v %.

For “H-Phe-Glu-Phe*-Gln-Trp-Lys-NH2 (H-FE[Phe∗]QWK-NH2; not fully specified; reading uncertain) [compound 15]”, in data set [2], the “Minimum gelation concentration (w/v % in PBS)” value was determined as 2 w/v %.

Turning to “H-Phe-Glu-Phe*-Lys-Phe-Ser-NH2 (H-FE[Phe∗]KFS-NH2; not fully specified; reading uncertain) [compound 20]”, the “Minimum gelation concentration (w/v % in PBS)” value in data set [2] was 1 w/v %.

Consider “H-Phe-Glu-Trp*-Gln-Phe-Lys-NH2 (H-FE[Trp∗]QFK-NH2; not fully specified; reading uncertain) [compound 21]”, for which the “Minimum gelation concentration (w/v % in PBS)” value in data set [2] was found to be 2 w/v %.

In the case of “H-Trp-Glu-Phe*-Gln-Phe-Lys-NH2 (H-WE[Phe∗]QFK-NH2; not fully specified; reading uncertain) [compound 14]”, in data set [2], the “Minimum gelation concentration (w/v % in PBS)” value came to 2 w/v %.

For “H-VEVQVK-NH2 [compound 7, H-Val-Glu-Val-Gln-Val-Lys-NH2]”, the Gelation behaviour entry in data set [2] was “remained in solution”.

Take “SEQ ID NO: 56, modified by the inclusion of an ester as linker: biogel MOJ-02 modified by an ester linker (spacer) between the hydrogelator part and the biological active ingredient (Y[dR]FFQ[β3hF]FQFK-NH2; not fully specified (residue 9); also: ester linker between hydrogelator part and active ingredient, position not given here)”: the Biogel formation entry in data set [2] was “able to form a biogel spontaneously”.

(Values after patent US12383628B2 (priority 2016, dated 2025).)
